Legend:
LLC cells = test: Orthotopic implantation in C57BL/6 mice, LLC cells; format: in vivo, murine; details: pleural cavity, 14 days, n = 5, vs Scr
Experimental: All animal care and handling procedures were performed in accordance with the National Institutes of Health Guide for the Care and Use of Laboratory Animals, and were approved by the Institutional Review Board of Nanjing University (Nanjing, China). Female SCID mice and C57BL/6 mice (6–8 week old) were purchased from the Model Animal Research Center of Nanjing University (Nanjing, China), and were maintained under specific pathogen-free conditions at Nanjing University. The sample size was chosen with adequate power on the basis of the literature and our previous experience[46] and for each experiment it is indicated in the figure legend. Prior to carrying out the experiment, mice were randomly assigned to two different treatment groups (NatD-KD or Scr). For xenograft studies, 1 × 10^6 cells were resuspended in 100 µl PBS and injected into the lateral tail vein. Lung nodules and progression were monitored and quantified using the bioluminescence system (Caliper IVIS Lumina XR) or by counting under a dissecting microscope. […] Mice were killed at day 28 or day 30 to collect lungs, and lung nodules in serial sections were quantified microscopically. […] Lung nodules and progression were monitored and quantified using the bioluminescence system (Caliper IVIS Lumina XR). Mice were killed at day 14 or day 21 to collect lungs, and lung nodules in serial sections were quantified microscopically. […]

H1299 cells [1] = test: TGF-β1-induced EMT experiment (morphology), H1299 cells; format: cell-based, human; details: TGF-β1-treated NatD knockdown H1299 cells
From the text: Fig. 4 Silencing NatD suppresses cancer cell EMT by downregulating Slug. a Representative phase contrast images of Scr and NatD-KD H1299 cells treated with TGF-β1. Data are representative of three independent experiments. Scale bar, 100 μm. b Quantitative real-time PCR analysis of mRNA levels of indicated key EMT-related genes in Scr and NatD-KD H1299 cells normalized to GAPDH in the absence or presence of TGF-β1. Results are shown as mean ± s.d. of three independent experiments. Two-tailed Student’s t-test was used. **P < 0.01 or *P < 0.05 compared with the indicated control. c Western blot analysis of indicated protein levels in Scr and NatD-KD H1299 cells in the absence or presence of TGF-β1. GAPDH served as a loading control. Data are representative of three independent experiments. d Immunofluorescence analysis of Scr and NatD-KD H1299 cells in the absence or presence of TGF-β1 stained for E-cadherin and N-cadherin. […] (bottom panels) Cells were counted in at least four random microscope fields (×100 magnification) for the corresponding assays; migration and invasion are expressed as a percentage of control. […] Two-tailed Student’s t-test was used. **P < 0.01 compared with the indicated control. g Quantitative real-time PCR analysis of the mRNA levels of NatD and indicated key EMT-related genes (normalized to GAPDH) in Scr cells, NatD-KD cells, and NatD-KD + Slug cells. […]

H1299 cells [2] = test: Apoptosis and cell cycle by flow cytometry, H1299 cells; format: cell-based, human; details: vs Scr
Experimental: The in vitro viability of H1299 cells was assessed using the Cell Counting Kit-8 (CCK-8, Dojindo, Japan) according to the manufacturer’s protocol. Flow cytometric analysis of apoptosis was assessed by Annexin V and PI staining using the Annexin V-APC Apoptosis Detection Kit (KeyGEN BioTECH, China) according to the manufacturer’s guide. For cell cycle analysis, cells were harvested and fixed at 4 °C overnight with 70% ethanol. Cells were washed twice with PBS, and their DNA was stained using a Cell Cycle Detection Kit (KeyGEN BioTECH, China). The samples were analyzed by flow cytometry (Becton Dickinson, NJ, USA), and results were analyzed with FlowJo software according to the manufacturer’s instructions. For the wound healing assay, cells were plated to confluence in a 6-well plate, and the cell monolayer was scratched using a pipette tip. Representative photos were taken using a digital camera mounted on an inverted microscope (Olympus) at indicated times. Live cell imaging was performed using the HoloMonitor M4 time-lapse cytometer (Phase Holographic Imaging, Sweden). […]
Supplementary Figure 1. […] (b and c) Representative images from three independent experiments of apoptosis (b) and cell cycle analysis (c) of Scr and NatD-KD H1299 cells analyzed by flow cytometry. […]

“NatD-KD2: Human NatD shRNA KD2: 5′-GGTTGAATGTCTCCATTGA-3′, lentiviral (shRNA lentiviral)” was tested, and the “migration and invasion, orthotopic model” value (LLC cells) was “significantly reduced”, the “morphology on TGF-β1 treatment, NatD knockdown cells” value (H1299 cells [1]) was “mostly retained their rounded epithelial morphology” and the “numbers of apoptotic cells or cell cycle” value (H1299 cells [2]) was “no difference”.

From publication PMC5640650, “NatD promotes lung cancer progression by preventing histone H4 serine phosphorylation to activate Slug expression” (Nature Communications, 2017)
